Columns and labels:
Type in all cases: physicochemical
[1] = binding constant K1:1 of inclusion complex with Nifedipine; details: substrate Nifedipine, value (spread)
Procedure: (§1) The following tables detail some of the SAE-AE-CD's according to the invention. These products were made according to the examples below. The table indicates the inclusion complexes formed with the indicated drugs and cyclodextrins as well as their corresponding linear binding constants (K1:1) determined at 25° C.
(§2) Excess amount of drug was added to a CD-containing aqueous solution (concentration ranging from 0 to 0.10M). […] The suspension was centrifuged for 5 min. at 3000 rpm (Dynac™ centrifuge, Clay Adams, Parsippany, N.J.). A 20 μL sample was obtained from the supernatant and diluted to 1-5-ml with glass double distilled water.
(§3) The mobile phase(s) was chosen in accordance with the properties of the analyzed drug and its behavior in interacting with the chromatographic support. Suitable exemplary conditions for specific drugs are detailed in the table below.
(§4) The following general procedure was used to determine the extent of inclusion complex formation for an active agent/cyclodextrin derivative combination. The change in absorbance due to inclusion complex formation for a drug was monitored. The change in absorbance value as a function of total ligand concentration at a fixed concentration of substrate was measured. The wavelength for analysis was chosen appropriately depending on the analyzed drug. […]

[2] = binding constant K1:1 of inclusion complex with α-Me-Prednisolone; details: substrate α-Me-Prednisolone, value (spread)
Procedure: as §1, §2, §3, §4

[3] = binding constant K1:1 of inclusion complex with Prednisolone; details: substrate Prednisolone, value (spread)
Procedure: as §1
(§5) The following general procedure was used to determine the extent of inclusion complex formation for an active agent/cyclodextrin derivative combination. The change in absorbance due to inclusion complex formation for a drug was monitored. The change in absorbance value as a function of total ligand concentration at a fixed concentration of substrate was measured. The wavelength for analysis was chosen appropriately depending on the analyzed drug. The analysis was performed using a Perkin Elmer double beam UV/Vis Lamda 6 instrument equipped with a data manager software and water jacketed multicell attachment. A circulating water bath was used to provide constant temperature during experiments. The data were linearized using the method described by Foster et al.: R. Foster, D. L. Hammich, A. A Wardley (Interaction of Polynitro compounds with Aromatic Hydroquinones and Bases. Part III. A New Method for Determining the Association Constants for Certain Interactions between Nitro Compounds and Bases in Solution. J. Chem. Soc. (1953) 3817-20). […]

[4] = binding constant K1:1 of inclusion complex with Nimodipine; details: substrate Nimodipine, value (spread)
Procedure: as §1, §5

[5] = binding constant K1:1 of inclusion complex with Nitrendipine; details: substrate Nitrendipine, value (spread)
Procedure: as §1, §5

[6] = binding constant K1:1 of inclusion complex with Clotrimazole; details: substrate Clotrimazole, value (spread)
Procedure: as §1, §5

[7] = binding constant K1:1 of inclusion complex with Triamcinolone; details: substrate Triamcinolone, value (spread)
Procedure: as §1, §5

[8] = binding constant K1:1 of inclusion complex with Camptothecin; details: substrate Camptothecin, value (spread)
Procedure: as §1, §2, §3

Row | SMILES | K1:1 25° C. [1] | K1:1 25° C. [2] | K1:1 25° C. [3] | K1:1 25° C. [4] | K1:1 25° C. [5] | K1:1 25° C. [6] | K1:1 25° C. [7] | K1:1 25° C. [8] [M⁻¹]
1 | OC[C@H]1O[C@@H]2O[C@H]3[C@H](O)[C@@H](O)[C@@H](O[C@H]4[C@H](O)[C@@H](O)[C@@H](O[C@H]5[C@H](O)[C@@H](O)[C@@H](O[C@H]6[C@H](O)[C@@H](O)[C@@H](O[C@H]7[C@H](O)[C@@H](O)[C@@H](O[C@H]8[C@H](O)[C@@H](O)[C@@H](O[C@H]1[C@H](O)[C@H]2O)O[C@@H]8CO)O[C@@H]7CO)O[C@@H]6CO)O[C@@H]5CO)O[C@@H]4CO)O[C@@H]3CO [β-CD, β-cyclodextrin] | 121.9(35) |  |  |  |  |  |  | 
2 | OC[C@H]1O[C@@H]2O[C@H]3[C@H](O)[C@@H](O)[C@@H](O[C@H]4[C@H](O)[C@@H](O)[C@@H](O[C@H]5[C@H](O)[C@@H](O)[C@@H](O[C@H]6[C@H](O)[C@@H](O)[C@@H](O[C@H]7[C@H](O)[C@@H](O)[C@@H](O[C@H]8[C@H](O)[C@@H](O)[C@@H](O[C@H]9[C@H](O)[C@@H](O)[C@@H](O[C@H]1[C@H](O)[C@H]2O)O[C@@H]9CO)O[C@@H]8CO)O[C@@H]7CO)O[C@@H]6CO)O[C@@H]5CO)O[C@@H]4CO)O[C@@H]3CO [γ-CD, γ-cyclodextrin] | 1416.1(162) | 3038(269) | 3300.42(21) | 1780(190) | 2508(59) | 1015(30) | 9769 (560) | 73

From patent US7625878B2, “Sulfoalkyl ether-alkyl ether cyclodextrin derivatives” (The University of Kansas, priority 2003, dated 2009)
